Experimental data as given in patent US11219221B2 (FarmHannong Co., Ltd., priority 2017, dated 2022).

Assays:
[1] = molecular target: Spirulina subsalsa PPO CyPPO16 (SEQ ID NO: 1) variant V305M (MBP fusion); assay: PPO enzyme inhibition (IC50), MBP-fused PPO; assay type: biochemical; details: 50 μM protoporphyrinogen IX, pH 8.0, room temperature, 30 min
Description: (§1) Thus, PPO proteins of wild type and variants were expressed as fused to MBP and were used for experiments.
(§2) The following process for purification of PPO protein was performed in a 4° C. cold room. Amylose resin (NEB) was packed to 1.5×15 cm column (Bio-Rad, Econo Columns 1.5×15 cm, glass chromatography column, max. vol), and the obtained protein extracts were loaded to the column at a flow rate of 0.2 ml/min. The column was washed with 3 column volumes of buffer and the presence of protein in the washing solution was examined. When the protein was no longer detected, the washing procedure was terminated. Then, the MBP-PPO protein was eluted with approximately 2 column volumes of buffer containing 20 mM maltose. The protein concentration of each eluent was determined and the elution was stopped when the protein was no longer detected. Ten microliter of each fraction was investigated for protein quantification and SDS-PAGE analysis. The highly pure fractions of PPO protein variants were used for the enzyme assay.
(§3) Since protoporphyrinogen IX, a substrate of PPO protein, was not commercially available, it was chemically synthesized in the laboratory. Overall process was performed in dark under nitrogen stream. […] of protoporphyrin IX was dissolved in 20 ml of 20% (v/v) EtOH, and stirred under dark condition for 30 minutes. The obtained protoporphyrin IX solution was put into a 15 ml screw tube in an amount of 800 μl, and flushed with nitrogen gas for 5 minutes. To this, 1.5 g of sodium amalgam was added and vigorously shaken for 2 minutes. The lid was opened to exhaust hydrogen gas in the tube. Thereafter, the lid was closed and incubated for 3 minutes. The protoporphyrinogen IX solution was filtered using syringe and cellulose membrane filter. […] To determine the enzyme activity of PPO protein, a reaction mixture was prepared with the following composition (based on 10 ml): 50 mM Tris-Cl (pH 8.0); 50 mM NaCl; 0.04% (v/v) Tween 20; 40 mM glucose (0.072 g); 5 units glucose oxidase (16.6 mg); and 10 units catalase (1 μl).
(§4) Hundred and eighty microliters of a reaction mixture containing the purified PPO protein were placed in 96 well plates and 20 μl of […] were added. […] The reaction proceeded at room temperature for 30 min and the fluorescence of protoporphyrin IX was measured using Microplate reader (Sense, Hidex) (excitation: 405 nm; emission: 633 nm). […] To this, 2.7 N HCl was added, and the absorbance at 408 nm was measured. A standard curve was generated using standard protoporphyrin IX, and PPO activity was measured by calibration of protoporphyrin IX using the standard curve of protoporphyrin IX.

[2] = molecular target: Spirulina subsalsa PPO CyPPO16 (SEQ ID NO: 1) variant L327T (MBP fusion); assay: PPO enzyme inhibition (IC50), MBP-fused PPO; assay type: biochemical; details: 50 μM protoporphyrinogen IX, pH 8.0, room temperature, 30 min
Description: as §1, §2, §3, §4

[3] = molecular target: Thermosynechococcus sp. NK55a PPO CyPPO17 (SEQ ID NO: 3) variant F323V (MBP fusion); assay: PPO enzyme inhibition (IC50), MBP-fused PPO; assay type: biochemical; details: 50 μM protoporphyrinogen IX, pH 8.0, room temperature, 30 min
Description: as §1, §2, §3, §4

[4] = molecular target: Thermosynechococcus sp. NK55a PPO CyPPO17 (SEQ ID NO: 3) variant F160A (MBP fusion); assay: PPO enzyme inhibition (IC50), MBP-fused PPO; assay type: biochemical; details: 50 μM protoporphyrinogen IX, pH 8.0, room temperature, 30 min
Description: as §1, §2, §3, §4

[5] = molecular target: Spirulina subsalsa PPO CyPPO16 (SEQ ID NO: 1) variant F324V (MBP fusion); assay: PPO enzyme inhibition (IC50), MBP-fused PPO; assay type: biochemical; details: 50 μM protoporphyrinogen IX, pH 8.0, room temperature, 30 min
Description: as §1, §2, §3, §4

[6] = molecular target: Thermosynechococcus sp. NK55a PPO CyPPO17 (SEQ ID NO: 3) variant A166C (MBP fusion); assay: PPO enzyme inhibition (IC50), MBP-fused PPO; assay type: biochemical; details: 50 μM protoporphyrinogen IX, pH 8.0, room temperature, 30 min
Description: as §1, §2, §3, §4

[7] = molecular target: Spirulina subsalsa PPO CyPPO16 (SEQ ID NO: 1) variant A162L (MBP fusion); assay: PPO enzyme inhibition (IC50), MBP-fused PPO; assay type: biochemical; details: 50 μM protoporphyrinogen IX, pH 8.0, room temperature, 30 min
Description: as §1, §2, §3, §4

[8] = molecular target: Spirulina subsalsa PPO CyPPO16 (SEQ ID NO: 1) variant F156A (MBP fusion); assay: PPO enzyme inhibition (IC50), MBP-fused PPO; assay type: biochemical; details: 50 μM protoporphyrinogen IX, pH 8.0, room temperature, 30 min
Description: as §1, §2, §3, §4

[9] = molecular target: Spirulina subsalsa PPO CyPPO16 (SEQ ID NO: 1) variant A162C (MBP fusion); assay: PPO enzyme inhibition (IC50), MBP-fused PPO; assay type: biochemical; details: 50 μM protoporphyrinogen IX, pH 8.0, room temperature, 30 min
Description: as §1, §2, §3, §4

[10] = molecular target: Spirulina subsalsa PPO CyPPO16, wild type, SEQ ID NO: 1 (MBP fusion); assay: PPO enzyme inhibition (IC50), MBP-fused PPO; assay type: biochemical; details: 50 μM protoporphyrinogen IX, pH 8.0, room temperature, 30 min
Description: as §1, §2, §3, §4

[11] = molecular target: Spirulina subsalsa PPO CyPPO16 (SEQ ID NO: 1) variant R85A (MBP fusion); assay: PPO enzyme inhibition (IC50), MBP-fused PPO; assay type: biochemical; details: 50 μM protoporphyrinogen IX, pH 8.0, room temperature, 30 min
Description: as §1, §2, §3, §4

[12] = molecular target: Spirulina subsalsa PPO CyPPO16 (SEQ ID NO: 1) variant V160C (MBP fusion); assay: PPO enzyme inhibition (IC50), MBP-fused PPO; assay type: biochemical; details: 50 μM protoporphyrinogen IX, pH 8.0, room temperature, 30 min
Description: as §1, §2, §3, §4

[13] = molecular target: Thermosynechococcus sp. NK55a PPO CyPPO17 (SEQ ID NO: 3) variant V304M (MBP fusion); assay: PPO enzyme inhibition (IC50), MBP-fused PPO; assay type: biochemical; details: 50 μM protoporphyrinogen IX, pH 8.0, room temperature, 30 min
Description: as §1, §2
as §3, with “Overall” for “Since protoporphyrinogen IX, a substrate of PPO protein, was not commercially available, it was chemically synthesized in the laboratory. Overall”, “minutes.” for “minutes. The protoporphyrinogen IX solution was filtered using syringe and cellulose membrane filter.”
as §4

[14] = molecular target: Thermosynechococcus sp. NK55a PPO CyPPO17 (SEQ ID NO: 3) variant A166L (MBP fusion); assay: PPO enzyme inhibition (IC50), MBP-fused PPO; assay type: biochemical; details: 50 μM protoporphyrinogen IX, pH 8.0, room temperature, 30 min
Description: as §1, §2
as §3, with “Overall” for “Since protoporphyrinogen IX, a substrate of PPO protein, was not commercially available, it was chemically synthesized in the laboratory. Overall”, “minutes.” for “minutes. The protoporphyrinogen IX solution was filtered using syringe and cellulose membrane filter.”
as §4

[15] = molecular target: Thermosynechococcus sp. NK55a PPO CyPPO17 (SEQ ID NO: 3) variant R88A (MBP fusion); assay: PPO enzyme inhibition (IC50), MBP-fused PPO; assay type: biochemical; details: 50 μM protoporphyrinogen IX, pH 8.0, room temperature, 30 min
Description: as §1, §2
as §3, with “Overall” for “Since protoporphyrinogen IX, a substrate of PPO protein, was not commercially available, it was chemically synthesized in the laboratory. Overall”, “minutes.” for “minutes. The protoporphyrinogen IX solution was filtered using syringe and cellulose membrane filter.”
as §4

[16] = molecular target: Thermosynechococcus sp. NK55a PPO CyPPO17, wild type, SEQ ID NO: 3 (MBP fusion); assay: PPO enzyme inhibition (IC50), MBP-fused PPO; assay type: biochemical; details: 50 μM protoporphyrinogen IX, pH 8.0, room temperature, 30 min
Description: as §1, §2
as §3, with “Overall” for “Since protoporphyrinogen IX, a substrate of PPO protein, was not commercially available, it was chemically synthesized in the laboratory. Overall”, “minutes.” for “minutes. The protoporphyrinogen IX solution was filtered using syringe and cellulose membrane filter.”
as §4

[17] = molecular target: Thermosynechococcus sp. NK55a PPO CyPPO17 (SEQ ID NO: 3) variant L326T (MBP fusion); assay: PPO enzyme inhibition (IC50), MBP-fused PPO; assay type: biochemical; details: 50 μM protoporphyrinogen IX, pH 8.0, room temperature, 30 min
Description: as §1, §2
as §3, with “Overall” for “Since protoporphyrinogen IX, a substrate of PPO protein, was not commercially available, it was chemically synthesized in the laboratory. Overall”, “minutes.” for “minutes. The protoporphyrinogen IX solution was filtered using syringe and cellulose membrane filter.”
as §4

[18] = molecular target: Thermosynechococcus sp. NK55a PPO CyPPO17 (SEQ ID NO: 3) variant V164C (MBP fusion); assay: PPO enzyme inhibition (IC50), MBP-fused PPO; assay type: biochemical; details: 50 μM protoporphyrinogen IX, pH 8.0, room temperature, 30 min
Description: as §1, §2
as §3, with “Overall” for “Since protoporphyrinogen IX, a substrate of PPO protein, was not commercially available, it was chemically synthesized in the laboratory. Overall”, “minutes.” for “minutes. The protoporphyrinogen IX solution was filtered using syringe and cellulose membrane filter.”
as §4

[19] = tested on: transgenic A. thaliana (CyPPO16, CyPPO17 and variants); assay: Herbicide spray test on Arabidopsis (T1); assay type: in vivo, Arabidopsis thaliana; details: 1 μM spray (100 ml, 0.24 m^2), 4-week-old T1 plants
Source text: A. thaliana was transformed with a binary vector having ORF of a selectable marker, Bar gene (glufosinate-tolerant gene), and ORF of each mutant gene of CyPPO16 and CyPPO17. The transgenic plant was examined for cross-tolerance towards glufosinate and PPO-inhibiting herbicides. The bar gene was also used to examine whether the transgene was stably inherited during generations. NOS promoter and E9 terminator were used for bar gene expression.
In order to express proteins of CyPPO16, CyPPO16 variants, CyPPO17, and CyPPO17 variants in plants, a CaMV35S promoter and a NOS terminator were used. Encoding genes of CyPPO16, CyPPO16 variants, CyPPO17, and CyPPO17 variants were introduced into binary vector using Xhol and BamHI restriction enzymes. Furthermore, for confirmation of the protein expression, hemagglutinin (HA) tag was fused to the C-terminal region of PPO protein coding gene using BamHI and Sad restriction enzymes. In addition, in order to transit protein to chloroplast, transit peptide (TP) gene (SEQ ID NO: 90) of AtPPO1 gene (SEQ ID NO: 89) was fused to N-terminal region of PPO protein coding gene using Xbal and Xhol restriction enzymes.
Transgenic plants were screened with glufosinate tolerance which was conferred by Bar gene expression in the binary vector. […]

Question: `COC(=O)CCNC(=O)C(C)Sc1cc(-n2c(=O)cc(C(F)(F)F)n(C)c2=O)c(F)cc1Cl` (stereo not shown) [tiafenacil] was tested. Which IC50 [1] did it give?
Answer: 43 nM

Question: What about the IC50 [2] of the same compound?
Answer: 40 nM

Question: And the IC50 [3]?
Answer: 152 nM

Question: What about the IC50 [4] of the same compound?
Answer: 115 nM

Question: And the IC50 [5]?
Answer: 103 nM

Question: And the IC50 [6]?
Answer: 219 nM

Question: What about the IC50 [7] of the same compound?
Answer: 193 nM

Question: What about the IC50 [8] of the same compound?
Answer: 60 nM

Question: What about the IC50 [9] of the same compound?
Answer: 79 nM

Question: And the IC50 [10]?
Answer: 26 nM

Question: And the IC50 [11]?
Answer: 119 nM

Question: What about the IC50 [12] of the same compound?
Answer: 45 nM

Question: What about the IC50 [13] of the same compound?
Answer: 102 nM

Question: What about the IC50 [14] of the same compound?
Answer: 1130 nM

Question: And the IC50 [15]?
Answer: 152 nM

Question: What about the IC50 [16] of the same compound?
Answer: 44 nM

Question: What about the IC50 [17] of the same compound?
Answer: 194 nM

Question: And the IC50 [18]?
Answer: 87 nM

Question: What about the “Plant damage after herbicide spray” value [19] of the same compound?
Answer: no damage
